Measured values: patent US12427183B2, “Methods of treating cancer, infectious disease, and autoimmune disease using chemokines” (New York Society for the Relief of the Ruptured and …, priority 2016, dated 2025)
“Also recorded” adds a separate entry of the source.

Tests used:
[1] = system: TLR7-mediated activation of pDCs; type: cell-based, human; conditions: CXCL4 10 μg/ml; TLR7 agonist at suboptimal dose; similar in HDs and SSc patients
[2] = system: purified pDCs from HDs or SSc patients; assay: IFN production by purified pDCs cultured with chemokine alone; type: cell-based, human; set-up: IFN production, CXCL4 alone: dose or concentration left out as unconfirmed
Experimental: (§1) PBMCs were prepared using Ficoll-Paque density gradient from fresh blood under internal Institutional Review Board-approved protocols. pDCs were isolated as previously described (Guiducci et al. 2008) using either using negative depletion (Miltenyi Biotech) or following cell sorting using a BD IFNLUX cell sorter. As part of the gating strategy, neutrophils were excluded by FSC/SSC and cells positive for CD14 (CD3 and CD19 as well) were first excluded in order to prevent the contamination by TLR8 positive cells and then positively gated on HLA-DR, CD123 and BDCA4 to purify the pDCs. All BDCA4+ cells also express BDCA2 (results not shown). As a result, pure pDCs were obtained and no markers for neutrophils (CD66) or myeloid cells were found by PCR. B cells were FACS sorted as CD19+ and monocytes as CD14+ cells. PBMCs were depleted of pDCs using BDCA4 beads from Miltenyi. pDCs were cultured at 10,000-30,000 cells per well in a 96-round bottom plate and incubated at 37° C., 5% CO2 and 95% humidity. After 24 hours of culture, the supernatant was collected for ELISA or Mutiplex cytokine assays. In some culture conditions, cells were cultured with the PI3Kδ inhibitor, CAL-101 (Selleck chemicals) for 24 hours. The RNA-based TLR8 agonist, ORN8-L previously described (Guidacci et al. 2013) was synthetized by Chemgenes Corporation. For the TLR8 activation assay, pDCs were incubated in complete media alone, 200 μg/ml ORN8-L in complete media or 200 μg/ml ORN8-L+ 10 μg/ml CXCL4 (R&D systems).
Supernatant from pDCs 24 hour culture was used for quantification of secreted chemokines and cytokines and measured with the use of an enzyme-linked immunosorbent assay (ELISA) or Luminex multiplex-beads immunoassay. CXCL4 ELISA (Ray Biotech) and IFNα, IP-10, IL-6, TNF Luminex assay (Millipore) was performed according to the manufacturer's protocol. Due to the variability in the number of cells obtained from the different patients and so we could compare the values across donors, all results were normalized to 10,000 cells. Of note, for all donors, pDCs were plated between 10,000-30,000 cells.
When purified pDCs from HDs or SSc patients were cultured with CXCL4 alone ([…]), there was no effect on IFN production.
5×10^5 PBMCs or pDC-depleted PBMCs were cultured in 96 wells plate and stimulated with 0.25 μM CpG DNA with or without 10 μg/ml CXCL4, CXCL10, CXCL12 or CCL5. Freshly isolated pDCs were resuspended at 5×10^4 cells/100 μl RPMI 1640 medium (Gibco) and stimulated with the 0.25 μM CpG with/without 10 μg/ml indicated chemokines. The supernatant was harvested after 18 h and IFN-α was measured by ELISA.

[3] = system: TLR9-mediated activation of human B cells; assay: TLR9-mediated activation of human B cells (CpG with or without chemokines); type: cell-based
Experimental: as §1
IL-6, TNF, and IL-10 gene levels were measured at 6 hours post culture using PCR. The secretion of cytokines/chemokines in the supernatants was quantified using Luminex. CD83, CD80, CD86 and CD69 expression was measured by flow cytometry at 24 hour post culture.
Human B cells were purified and cultured for 6 hours or 24 hours either with medium only, with CpG-C (at 0.15 μM) alone or with a combination of CpG-C and CXCL4 (at 10 μg/ml). IL-6 gene levels was measured at 6 hour post culture by PCR and CD83, CD80, CD86 and CD69 expression was measured by flow cytometry at 24 hour post culture.
Purified B cells from HDs were cultured in media alone (control), with either a CpG TLR9 agonist (0.15 μM) or with CpG and either CXCL4, CXCL10, CXCL9, CXCL4, CXCL7 or CXCL12 (all at 10 μg/ml). IL-6 was quantified in the supernatants by ELISA.
Purified B cells from HDs were cultured in media alone (control), with either a CpG TLR9 agonist (0.25 μM) or with CpG and CXCL4 or CXCL10 (10 μg/ml) alone or in the presence of the CXCR3 inhibitor AMG487 at 0, 0.1, 1 or 10 μM for 6 hours or 24 hours. IL-6 was quantified by ELISA at 24 hours and IL-6 and TNF gene expression levels were quantified by q-PCR at 6 hours and CD83, CD80, CD86 and CD69 expression was measured by flow cytometry at 24 hours post culture.

[4] = CpG-B 0.15 μM + CXCL4 10 μg/ml, 6 hours

For “CXCL4: small chemokine of the CXC family, 70-amino acid protein released from alpha-granules of activated platelets”, the “TLR7 response (IFN-α) of pDCs” value [1] was “little to no effect”, the “IFN-α secretion by pDCs, chemokine used alone” value ([2]; chemokine 10 μg/ml without CpG, results not shown) was “no effect” and the “IFN production, CXCL4 alone” value ([2]; purified pDCs from HDs or SSc patients, CXCL4 alone) was “no effect; also recorded: did not induce”. For the same substance, the “effect of inhibition of CXCR3 on the chemokine's inhibition of TLR9 in B cells” value ([3]; CXCR3 inhibitor AMG487 0.1, 1 or 10 μM, CpG 0.25 μM, chemokine 10 μg/ml, 6 or 24 hours) was “no effect”, the “activation of B cells via TLR9 as shown by the production of IL-6” value ([3]; CpG 0.15 μM, chemokine 10 μg/ml, ELISA) was “inhibited” and the “expression of IL-6 in B cells (PCR and protein)” value [3, 4] was “negatively regulated”. For the same substance, the “expression of IL-10 in B cells (PCR and protein)” value [3, 4] was “negatively regulated”, the “expression of TNF in B cells (PCR and protein)” value [3, 4] was “negatively regulated” and the “TLR9 activation of B cells (IL-6 gene; CD83, CD80, CD86, CD69)” value ([3]; CpG-C 0.15 μM + CXCL4 10 μg/ml, 6 or 24 hours) was “negatively regulated”.
